Measurements from patent publication US6897200B1, “Oligonucleotide delivery systems for camptothecins” (University of Kentucky Research Foundation, priority 1998, dated 2005).

How the values were obtained:
[1] = tested on: single-strand DNA (ssDNA) (dT)30; experiment: Lactone stability in the presence of single-strand DNA (HPLC); type: physicochemical; conditions: ~33 mM base (dT)30; dsDNA 10- to 100-fold more dilute gives approximately equal stabilization
Source text: Note how the presence of DNA markedly stabilizes the biologically-active form of the camptothecins drugs. […] . But it is clear from our work that camptothecin drugs can interact with ssDNA as well as RNA (see FIGS. 4 through 7) and these interactions stabilize the biologically-active lactone forms of these agents.

[2] = tested on: dsDNA oligonucleotide d(CGTACG); experiment: NMR titration / 2D-NOESY of drug with d(CGTACG); conditions: drug:DNA ratios of 1:1, 2:1 and 3:1
[3] = tested on: dsDNA oligonucleotide (dG-dC)15; experiment: Lactone ring hydrolysis in PBS in the presence of (dG-dC)15 (reversed-phase HPLC); conditions: for % Lactose at Equilibrium: pH 7.4, 10 uM drug; for Lactone levels following three hours of incubation: (dG-dC)15 ~30 mM base, PBS pH 7.4, room temperature
[4] = tested on: duplex DNA oligonucleotides (dG-dC)15 or (dA-dT)15; experiment: UV absorption spectra of drug lactone with duplex DNA oligonucleotides; conditions: for DNA sequence preference (UV and HPLC data): (dG-dC)15 versus (dA-dT)15; for UV spectral change in the presence of DNA: PBS pH 5, 10 μM drug, (dG-dC)15 16 mM base or (dA-dT)15 24 mM base
[5] = tested on: dsDNA oligonucleotide (dA-dT)15; experiment: Lactone ring hydrolysis in PBS in the presence of (dA-dT)15 (reversed-phase HPLC); conditions: for % Lactose at Equilibrium: pH 7.4, 10 uM drug; for Lactone levels following three hours of incubation: (dA-dT)15 ~30 mM base, PBS pH 7.4, room temperature
[6] = Lactone ring hydrolysis in PBS in the absence of DNA (reversed-phase HPLC); conditions: for % Lactose at Equilibrium: PBS buffer, pH 7.4, 10 uM drug; for percent lactone at equilibrium: absence of DNA, 10 μM, incubated 3 hours, PBS pH 7.4, room temperature
dsDNA = experiment: Relactonization of carboxylate forms in dsDNA solutions (HPLC); conditions: ~30 mM base dsDNA in PBS, room temperature, after 30 hrs
[7] = tested on: double-stranded DNA (dsDNA); experiment: Fluorescence emission spectra of SN-38 lactone with DNA; type: binding; conditions: SN-38 lactone 1 μM, spectra within 2 min
Procedure: FIG. 8 depicts the marked shifting of the fluorescence emission spectra of SN-38 lactone (1 μM final concentration) in the presence of double-stranded DNA (dsDNA). SN38 contains a 10-hydroxy-nctionality which results in the molecule having a fluorescence emission which is highly sensitive to the presence of water in the surrounding microenvironment. […] Note how the agent fluoresces in the 410 nm to 460 nm region when water is not present, but fluoresces at 520 to 530 nm when water is present. […] The fluorophore was directly added to the DNA solution and the spectra recorded immediately (within 2 min.) prior to any significant conversion of the agent to carboxylate form.
To gain mechanistic insight into why the stabilization occurs, fluorescence spectroscopic scans of SN-38 lactone in the presence and absence of DNA were recorded.
Our results thus provide the first evidence that duplex DNA devoid of TopoI may play a functional role in the biological activities of the camptothecin drugs through the promotion of active lactone levels within the cell nucleus. […] The DNA-associated drugs are likely to be in their active lactone forms and ready for the subsequent drug-DNA-enzyme complex formation.

[8] = tested on: RNA (total RNA from yeast); experiment: Stability of topotecan lactone in the presence of RNA (reversed-phase HPLC); type: physicochemical; conditions: 1 μM topotecan
Procedure: FIG. 4 depicts the stability of topotecan in the presence of various concentrations of RNA at 22° C. In these experiments, topotecan (at a final concentration of 1 μM) was incubated in PBS, pH 7.4 in the presence of various concentrations of RNA (total RNA from yeast) for 30 min at 22° C. and analyzed for the fraction of lactone present by reversed-phase HPLC. […] As an example, in the presence of 7.5 mg/ml of RNA there exists a 10% greater amount of the lactone form than found in the absence of RNA.
FIG. 5. Stability of topotecan in the presence of various concentrations of RNA at 37° C. Topotecan (1 μM final concentration) was incubated in PBS, pH 7.4 in the presence of various concentrations of RNA (total RNA from yeast) for 30 min at 37° C. and analyzed for the fraction of lactone present by reversed-phase HPLC. At a RNA concentration of 7.5 mg/ml, 12% more of the lactone form of topotecan is present.
FIG. 6 represents a comparison of the stability of topotecan in the presence and absence of RNA at 22° C. Topotecan (1 μM final concentration) was incubated in PBS, pH 7.4 either alone (filled circles) or in the presence of 10 mg/ml of RNA (open circles) at 22° C. and analyzed for the fraction of lactone present at different times by reversed-phase HPLC.
FIG. 7 represents a comparison of the stability of topotecan in the presence and absence of RNA at 37° C. Topotecan (1 μM final concentration) was incubated in PBS, pH 7.4 either in the absence (filled circles) or in the presence of 10 mg/ml of RNA (open circles) at 37° C. and analyzed for the fraction of lactone present at different times by reversed-phase HPLC.

SMILES | effect of ssDNA on lactone stabilization (versus dsDNA) [1] | drug binding to DNA (2D-NOESY) [2] | % Lactose at Equilibrium ([3]; (dG-dC)15, 22 °C) | % Lactose at Equilibrium ([3]; (dG-dC)15, 37 °C) | Lactone levels following three hours of incubation [3] | DNA sequence preference (UV and HPLC data) [4] | UV spectral change in the presence of DNA [4] | % Lactose at Equilibrium ([5]; (dA-dT)15, 22 °C) | % Lactose at Equilibrium ([5]; (dA-dT)15, 37 °C) | Lactone levels following three hours of incubation [5] | % Lactose at Equilibrium ([6]; 22 °C) | % Lactose at Equilibrium ([6]; 37 °C) | percent lactone at equilibrium [6] | active lactone level after relactonization of pure carboxylate form (dsDNA) | direct binding of lactone form to DNA (fluorescence spectral shift) [7] | greater amount of the lactone form than in the absence of RNA ([8]; 7.5 mg/ml RNA, PBS pH 7.4, 30 min, 22 °C) | more of the lactone form present than without RNA ([8]; 7.5 mg/ml RNA, PBS pH 7.4, 30 min, 37 °C) | more of the lactone form present than without RNA ([8]; 10 mg/ml RNA, PBS pH 7.4, after 3 hrs, 22 °C) | more of the lactone form present than without RNA ([8]; 10 mg/ml RNA, PBS pH 7.4, after 3 hrs, 37 °C)
CCc1c2c(nc3ccc(OC(=O)N4CCC(N5CCCCC5)CC4)cc13)-c1cc3c(c(=O)n1C2)COC(=O)[C@]3(O)CC [CPT-11] | significantly diminished effects on stabilizing | clearly consistent with drug binding to DNA | −50% | 30 ± 2% | 95% | no signs of any sequence preference | substantial hypochromic and red spectral shift | −50% | 29 ± 2% | 95% | 17 ± 1% | 8 ± 2% | 24% | ~30% |  |  |  |  | 
CCc1c2c(nc3ccc(O)cc13)-c1cc3c(c(=O)n1C2)COC(=O)[C@]3(O)CC [SN-38, 7-ethyl-10-hydroxycamptothecin] |  |  |  |  |  |  |  |  |  |  |  |  |  |  | binds the DNA |  |  |  | 
CC[C@@]1(O)C(=O)OCc2c1cc1n(c2=O)Cc2cc3c(CN(C)C)c(O)ccc3nc2-1 [TPT, topotecan] | significantly diminished effects on stabilizing | clearly consistent with drug binding to DNA | −50% | 26 ± 2% | 95% | sequence preference of (dG-dC)15 over (dA-dT)15 | substantial hypochromic and red spectral shift | −50% | 19 ± 2% | 78% | 15 ± 1% | 10 ± 1% | 12% | ~30% |  | 10% | 12% | 25% | 15%
CC[C@@]1(O)C(=O)OCc2c1cc1n(c2=O)Cc2cc3ccccc3nc2-1 [camptothecin] |  |  |  |  | above 80% |  |  |  |  |  |  |  |  |  |  |  |  |  | 
